Assay results from US9776981B2, “Hepatitis C virus inhibitors” (BRISTOL-MYERS SQUIBB COMPANY, priority 2009, dated 2017).
Like-named read-outs stand apart in the source and are kept apart here.

System: HCV 1b genotype (HCV-neo replicon cells)
Assay: HCV Replicon assay (HCV 1b genotype)
Format: cell-based
Conditions: Hepatitis C virus, HCV 1b genotype replicon
Method: An HCV Replicon assay was utilized in the present disclosure, and was prepared, conducted and validated as described in commonly owned PCT/US2006/022197 and in O'Boyle et al., Antimicrob. Agents Chemother., 49(4):1346-1353 (April 2005). Assay methods incorporating luciferase reporters have also been used as described (Apath.com).
HCV-neo replicon cells and replicon cells containing resistance substitutions in the NS5A region were used to test the currently described family of compounds. The compounds were determined to have differing degrees of reduced inhibitory activity on cells containing mutations vs. the corresponding inhibitory potency against wild-type cells. Thus, the compounds of the present disclosure can be effective in inhibiting the function of the HCV NS5A protein and are understood to be as effective in combinations as previously described in application PCT/US2006/022197 and commonly owned WO 04/014852. It should be understood that the compounds of the present disclosure can inhibit multiple genotypes of HCV. […] In one embodiment, compounds of the present disclosure are inhibitory versus 1a, 1b, 2a, 2b, 3a, 4a, and 5a genotypes.

[1] = class symbol, read-out: Range (EC50 against HCV 1b)

Row | SMILES | EC50 [1] [nM] | EC50 (read-out: EC50) [nM]
1 | COC(=O)N[C@@H](C(=O)N[C@H](c1nc(-c2ccc3cc(-c4ccc(-c5cnc([C@@H](NC(=O)[C@H](NC(=O)OC)C(C)C)C(C)(C)C)[nH]5)cc4)ccc3c2)c[nH]1)C(C)(C)C)C(C)C [Example 148, Methyl ((1R)-1-(((1S)-1-(4-(4-(6-(2-((1S)-1-(((2R)-2-((methoxycarbonyl)amino)-3-methylbutanoyl)amino)-2,2-dimethylpropyl)-1H-imidazol-4-yl)-2-naphthyl)phenyl)-1H-imidazol-2-yl)-2,2-dimethylpropyl)carbamoyl)-2-methylpropyl)carbamate] | 1.01 to 1000 | 8.43
2 | COC(=O)N[C@H](C(=O)N[C@H](c1nc(-c2ccc(-c3ccc4cc(-c5c[nH]c([C@@H](NC(=O)[C@@H](NC(=O)OC)C(C)C)C(C)(C)C)n5)ccc4c3)cc2)c[nH]1)C(C)(C)C)C(C)C [Example 149, methyl ((1S)-1-(((1S)-1-(4-(4-(6-(2-((1S)-1-(((2S)-2-((methoxycarbonyl)amino)-3-methylbutanoyl)amino)-2,2-dimethylpropyl)-1H-imidazol-4-yl)-2-naphthyl)phenyl)-1H-imidazol-2-yl)-2,2-dimethylpropyl)carbamoyl)-2-methylpropyl)carbamate] | 0.0101 to 1 | –
3 | COC(=O)N[C@H](C(=O)N1[C@@H]2C[C@@H]2C[C@H]1c1ncc(-c2ccc3nc(-c4ccc5nc([C@@H]6C[C@H]7C[C@H]7N6C(=O)[C@@H](NC(=O)OC)C(C)C)[nH]c5c4)cnc3c2)[nH]1)C(C)C [Example 52, Methyl ((1S)-1-(((1R,3S,5R)-3-(4-(2-(2-((1R,3S,5R)-2-((2S)-2-((methoxycarbonyl)amino)-3-methylbutanoyl)-2-azabicyclo[3.1.0]hex-3-yl)-1H-benzimidazol-5-yl)-6-quinoxalinyl)-1H-imidazol-2-yl)-2-azabicyclo[3.1.0]hex-2-yl)carbonyl)-2-methylpropyl)carbamate] | – | 0.0059
4 | COC(=O)N[C@H](C(=O)N1C[C@@H](C)C[C@H]1c1ncc(-c2ccc(-c3ccc4cc(-c5[nH]c([C@@H]6C[C@H](C)CN6C(=O)[C@@H](NC(=O)OC)C6CCOCC6)nc5Cl)ccc4c3)cc2)[nH]1)C1CCOCC1 [Example 144, Methyl ((1S)-2-((2S,4S)-2-(4-(4-(6-(4-chloro-2-((2S,4S)-1-((2S)-2-((methoxycarbonyl)amino)-2-(tetrahydro-2H-pyran-4-yl)acetyl)-4-methyl-2-pyrrolidinyl)-1H-imidazol-5-yl)-2-naphthyl)phenyl)-1H-imidazol-2-yl)-4-methyl-1-pyrrolidinyl)-2-oxo-1-(tetrahydro-2H-pyran-4-yl)ethyl)carbamate] | 0.0101 to 1 | 0.0177
5 | COC(=O)N[C@H](C(=O)N1[C@@H]2C[C@@H]2C[C@H]1c1ncc(-c2cnc3cc(-c4ccc5nc([C@@H]6C[C@H]7C[C@H]7N6C(=O)[C@@H](NC(=O)OC)C6CCOCC6)[nH]c5c4)ccc3n2)[nH]1)C1CCOCC1 [Example 58, Methyl ((1S)-2-((1R,3S,5R)-3-(4-(6-(2-((1R,3S,5R)-2-((2S)-2-((methoxycarbonyl)amino)-2-(tetrahydro-2H-pyran-4-yl)acetyl)-2-azabicyclo[3.1.0]hex-3-yl)-1H-benzimidazol-5-yl)-2-quinoxalinyl)-1H-imidazol-2-yl)-2-azabicyclo[3.1.0]hex-2-yl)-2-oxo-1-(tetrahydro-2H-pyran-4-yl)ethyl)carbamate] | 0.0101 to 1 | 0.849
6 | COC(=O)N[C@H](C(=O)N1C[C@@H](C)C[C@H]1c1ncc(-c2ccc(-c3ccc4cc(-c5[nH]c([C@@H]6C[C@H](C)CN6C(=O)[C@@H](NC(=O)OC)C(C)C)nc5Cl)ccc4c3)cc2)[nH]1)C(C)C [Example 143, Methyl ((1S)-1-(((2S,4S)-2-(4-(4-(6-(4-chloro-2-((2S,4S)-1-((2S)-2-((methoxycarbonyl)amino)-3-methylbutanoyl)-4-methyl-2-pyrrolidinyl)-1H-imidazol-5-yl)-2-naphthyl)phenyl)-1H-imidazol-2-yl)-4-methyl-1-pyrrolidinyl)carbonyl)-2-methylpropyl)carbamate] | – | 0.00105
7 | COC(=O)N[C@H](C(=O)N1CCC[C@H]1c1nc2ccc(-c3ccc4cc(-c5ccc6nc([C@@H]7CCCN7C(=O)[C@@H](NC(=O)OC)C7CC7)[nH]c6c5)ccc4c3)cc2[nH]1)C1CC1 [Example 11, Dimethyl (2,6-naphthalenediylbis(1H-benzimidazole-5,2-diyl(2S)-2,1-pyrrolidinediyl((1S)-1-cyclopropyl-2-oxo-2,1-ethanediyl)))biscarbamate] | 0.0101 to 1 | 0.0182
8 | COC(=O)N[C@H](C(=O)N1[C@@H]2C[C@@H]2C[C@H]1c1ncc(-c2ccc3nc(-c4ccc5nc([C@@H]6C[C@H]7C[C@H]7N6C(=O)[C@@H](NC(=O)OC)C6CCOCC6)[nH]c5c4)cnc3c2)[nH]1)C1CCOCC1 [Example 53, Methyl ((1S)-2-((1R,3S,5R)-3-(4-(2-(2-((1R,3S,5R)-2-((2S)-2-((methoxycarbonyl)amino)-2-(tetrahydro-2H-pyran-4-yl)acetyl)-2-azabicyclo[3.1.0]hex-3-yl)-1H-benzimidazol-5-yl)-6-quinoxalinyl)-1H-imidazol-2-yl)-2-azabicyclo[3.1.0]hex-2-yl)-2-oxo-1-(tetrahydro-2H-pyran-4-yl)ethyl)carbamate] | 1.01 to 1000 | 1.81
9 | CC(C)CC(=O)N[C@H](c1nc(-c2ccc(-c3ccc4cc(-c5c[nH]c([C@@H](NC(=O)CC(C)C)C(C)(C)C)n5)ccc4c3)cc2)c[nH]1)C(C)(C)C [Example 150, N-((1S)-1-(4-(4-(6-(2-((1S)-2,2-dimethyl-1-((3-methylbutanoyl)amino)propyl)-1H-imidazol-4-yl)-2-naphthyl)phenyl)-1H-imidazol-2-yl)-2,2-dimethylpropyl)-3-methylbutanamide] | 1.01 to 1000 | –
